The results in this text go back to PubChem BioAssay AID224 (DTP/NCI, 2004).

“And” between values parts separate entries of the source, which are not always exact repeats. Equal entries are not always repeated. Toxic doses and inconclusive results are not listed.

For the assay, the system named is P335 leukemia ip, BDF1 mice, survival T/C %. Description: NCI In Vivo Anticancer Drug Screen. Data for tumor model P335 Leukemia (intraperitoneal) in B6D2F1 (BDF1) mice. As to conditions: endpoint: mean survival time, higher = longer survival. How it is done: The antitumor activity of compounds was measured in mice bearing transplantable tumors. Survival or tumor size were measured and the results are expressed as the measurement made in the treated group (T) divided by the measurement made in the vehicle treated control group (C). The tumor model used in this assay is P335 Leukemia (intraperitoneal) in B6D2F1 (BDF1) mice

The mark [1] stands for this setting: dose: 10.0 mg/kg/injection, schedule: Q01DX Z (ip), vehicle: carboxymethylcellulose (CMC).
Where [2] appears, read: dose: 5.0 mg/kg/injection, schedule: Q01DX Z (ip), vehicle: carboxymethylcellulose (CMC).
[3] abbreviates: dose: 25.0 mg/kg/injection, schedule: Q01DX Z (ip), vehicle: carboxymethylcellulose (CMC).
[4] abbreviates: dose: 50.0 mg/kg/injection, schedule: Q01DX Z (ip), vehicle: carboxymethylcellulose (CMC).
Setting [5] is: dose: 100.0 mg/kg/injection, schedule: Q01DX Z (ip), vehicle: carboxymethylcellulose (CMC).
Setting [6] is: dose: 31.25 mg/kg/injection, schedule: Q01DX Z (ip), vehicle: carboxymethylcellulose (CMC).
The mark [7] stands for this setting: dose: 125.0 mg/kg/injection, schedule: Q01DX Z (ip), vehicle: carboxymethylcellulose (CMC).
Setting [8] is: dose: 12.5 mg/kg/injection, schedule: Q01DX Z (ip), vehicle: carboxymethylcellulose (CMC).

As for `CSCS(=O)C[C@H](CO)NC(=O)/C=C/c1c(C)[nH]c(=O)[nH]c1=O` (stereo not given in full), the T/C runs as follows: (dose: 0.12 mg/kg/injection, schedule: Q01DX Z (ip), vehicle: saline) 100 % of control; (dose: 0.25 mg/kg/injection, schedule: Q01DX Z (ip), vehicle: saline) 107 % of control; (dose: 0.5 mg/kg/injection, schedule: Q01DX Z (ip), vehicle: saline) 105 % of control; (dose: 1.0 mg/kg/injection, schedule: Q01DX Z (ip), vehicle: saline) 110 % of control.
For the compound `CC1CCOS(=O)O1` (stereo not given), the T/C runs as follows: under setting [1], 91 % of control; (dose: 20.0 mg/kg/injection, schedule: Q01DX Z (ip), vehicle: carboxymethylcellulose (CMC)) 113 % of control; (dose: 40.0 mg/kg/injection, schedule: Q01DX Z (ip), vehicle: carboxymethylcellulose (CMC)) 117 % of control; (dose: 80.0 mg/kg/injection, schedule: Q01DX Z (ip), vehicle: carboxymethylcellulose (CMC)) 107 % of control.
As for `CN(C)CC(=O)c1ccc(O)c(O)c1`, the T/C by setting is: (dose: 15.6 mg/kg/injection, schedule: Q01DX Z (ip), vehicle: saline) 103 % of control; (dose: 31.25 mg/kg/injection, schedule: Q01DX Z (ip), vehicle: saline) 109 % of control; (dose: 62.5 mg/kg/injection, schedule: Q01DX Z (ip), vehicle: saline) 113 % of control; (dose: 125.0 mg/kg/injection, schedule: Q01DX Z (ip), vehicle: saline) 109 % of control and 119 % of control; (dose: 500.0 mg/kg/injection, schedule: Q01DX Z (ip), vehicle: saline) 89 % of control.
Take `O=c1cn[nH]c(=O)[nH]1`: the T/C by setting is: (dose: 187.5 mg/kg/injection, schedule: Q01DX Z (ip), vehicle: carboxymethylcellulose (CMC)) 88 % of control; (dose: 375.0 mg/kg/injection, schedule: Q01DX Z (ip), vehicle: carboxymethylcellulose (CMC)) 88 % of control; (dose: 750.0 mg/kg/injection, schedule: Q01DX Z (ip), vehicle: carboxymethylcellulose (CMC)) 98 % of control.
In the case of `N#[N+]c1cnc([O-])[nH]c1=O`, the T/C (dose: 0.31 mg/kg/injection, schedule: Q01DX Z (ip), vehicle: carboxymethylcellulose (CMC)) was 96 % of control; the T/C (dose: 0.62 mg/kg/injection, schedule: Q01DX Z (ip), vehicle: carboxymethylcellulose (CMC)) was 123 % of control; the T/C (dose: 1.25 mg/kg/injection, schedule: Q01DX Z (ip), vehicle: carboxymethylcellulose (CMC)) is 103 % of control; the T/C under setting [2] is 124 % of control; the T/C under setting [1] was 103 % of control and 104 % of control and 110 % of control.
Consider `CCCCn1cnc2c(=S)nc[nH]c21`, for which the T/C (dose: 0.4 mg/kg/injection, schedule: Q01DX Z (ip), vehicle: carboxymethylcellulose (CMC)) was 89 % of control; the T/C (dose: 0.8 mg/kg/injection, schedule: Q01DX Z (ip), vehicle: carboxymethylcellulose (CMC)) is 87 % of control; the T/C (dose: 1.6 mg/kg/injection, schedule: Q01DX Z (ip), vehicle: carboxymethylcellulose (CMC)) was 87 % of control.
As to `C[C@@H]1C[C@H]2CC[C@H](O2)[C@H](C)C(=O)O[C@@H](C)C[C@@H]2CC[C@@H](O2)[C@@H](C)C(=O)O[C@H](C)C[C@H]2CC[C@H](O2)[C@H](C)C(=O)O[C@@H](C)C[C@@H]2CC[C@@H](O2)[C@@H](C)C(=O)O1`, the T/C reads like this: under setting [3], 96 % of control; under setting [4], 88 % of control; under setting [5], 86 % of control.
In the case of `CCOC(=O)NP(=O)(N1CC1(C)C)N1CC1(C)C` (stereo not given), the T/C (dose: 4.0 mg/kg/injection, schedule: Q01DX Z (ip), vehicle: carboxymethylcellulose (CMC)) is 101 % of control; the T/C (dose: 8.0 mg/kg/injection, schedule: Q01DX Z (ip), vehicle: carboxymethylcellulose (CMC)) is 106 % of control; the T/C (dose: 16.0 mg/kg/injection, schedule: Q01DX Z (ip), vehicle: carboxymethylcellulose (CMC)) was 114 % of control; the T/C under setting [6] was 101 % of control; the T/C under setting [7] was 88 % of control; the T/C (dose: 250.0 mg/kg/injection, schedule: Q01DX Z (ip), vehicle: carboxymethylcellulose (CMC)) was 93 % of control.
On to `COC12C(COC(N)=O)C3=C(C(=O)C(C)=C(N)C3=O)N1CC1C2N1C` (stereo not given), for which the T/C by setting is: (dose: 0.63 mg/kg/injection, schedule: Q01DX Z (ip), vehicle: carboxymethylcellulose (CMC)) 110 % of control; under setting [2], 160 % of control and 168 % of control.
Take `O=c1[nH]c(=O)n(C2CC(O)C(CO)O2)cc1F` (stereo not given): the T/C was 111 % of control under setting [3]; 104 % of control under setting [4]; 111 % of control under setting [5]; 114 % of control (dose: 200.0 mg/kg/injection, schedule: Q01DX Z (ip), vehicle: carboxymethylcellulose (CMC)); 87 % of control (dose: 400.0 mg/kg/injection, schedule: Q01DX Z (ip), vehicle: carboxymethylcellulose (CMC)); 86 % of control (dose: 800.0 mg/kg/injection, schedule: Q01DX Z (ip), vehicle: carboxymethylcellulose (CMC)).
In the case of `C[N+](C)(C)c1ncnc2nc[nH]c12`, the T/C is 107 % of control under setting [8]; 94 % of control under setting [3]; 110 % of control under setting [4]; 87 % of control and 107 % of control under setting [5].
Consider `CN(C)c1nc(N(C)C)nc(N(C)C)n1`, for which the T/C was 113 % of control under setting [6]; 111 % of control (dose: 62.5 mg/kg/injection, schedule: Q01DX Z (ip), vehicle: carboxymethylcellulose (CMC)); 113 % of control under setting [7]; 111 % of control (dose: 500.0 mg/kg/injection, schedule: Q01DX Z (ip), vehicle: carboxymethylcellulose (CMC)); 93 % of control (dose: 1000.0 mg/kg/injection, schedule: Q01DX Z (ip), vehicle: carboxymethylcellulose (CMC)).
On to `Clc1ccc(C(c2ccccc2Cl)C(Cl)Cl)cc1` (stereo not given), for which the T/C runs as follows: (dose: 12.5 mg/kg/injection, schedule: Q01DX Z (sc), vehicle: steriod suspending solution) 96 % of control; (dose: 25.0 mg/kg/injection, schedule: Q01DX Z (sc), vehicle: steriod suspending solution) 96 % of control; (dose: 50.0 mg/kg/injection, schedule: Q01DX Z (sc), vehicle: steriod suspending solution) 97 % of control; (dose: 100.0 mg/kg/injection, schedule: Q01DX Z (sc), vehicle: steriod suspending solution) 92 % of control.
Regarding `CCN(CC)C(=S)S`, the T/C is, setting by setting: (dose: 125.0 mg/kg/injection, schedule: Q01DX Z (ip), vehicle: other) 92 % of control; (dose: 250.0 mg/kg/injection, schedule: Q01DX Z (ip), vehicle: other) 105 % of control; (dose: 500.0 mg/kg/injection, schedule: Q01DX Z (ip), vehicle: other) 106 % of control; (dose: 500.0 mg/kg/injection, schedule: Q01DX Z (ip), vehicle: water) 102 % of control; (dose: 1000.0 mg/kg/injection, schedule: Q01DX Z (ip), vehicle: other) 103 % of control; (dose: 1000.0 mg/kg/injection, schedule: Q01DX Z (ip), vehicle: water) 120 % of control.
`CC/C(=C(/CC)c1ccc(O)cc1)c1ccc(O)cc1`: under “dose: 15.6 mg/kg/injection, schedule: Q01DX Z (sc), vehicle: steriod suspending solution”, the T/C was 91 % of control.
On to `Cn1cnc([N+](=O)[O-])c1Sc1ncnc2nc[nH]c12`, for which the T/C was 89 % of control under setting [8], 105 % of control under setting [3] and 115 % of control under setting [4].
Take `O=C1CCC(N2C(=O)c3ccccc3C2=O)C(=O)N1` (stereo not given): the T/C (dose: 9.4 mg/kg/injection, schedule: Q01DX Z (ip), vehicle: carboxymethylcellulose (CMC)) was 92 % of control; the T/C (dose: 18.75 mg/kg/injection, schedule: Q01DX Z (ip), vehicle: carboxymethylcellulose (CMC)) was 86 % of control and 97 % of control; the T/C (dose: 37.5 mg/kg/injection, schedule: Q01DX Z (ip), vehicle: carboxymethylcellulose (CMC)) is 88 % of control and 90 % of control and 119 % of control; the T/C (dose: 75.0 mg/kg/injection, schedule: Q01DX Z (ip), vehicle: carboxymethylcellulose (CMC)) was 100 % of control and 102 % of control; the T/C (dose: 150.0 mg/kg/injection, schedule: Q01DX Z (ip), vehicle: carboxymethylcellulose (CMC)) was 88 % of control and 98 % of control; the T/C (dose: 300.0 mg/kg/injection, schedule: Q01DX Z (ip), vehicle: carboxymethylcellulose (CMC)) was 86 % of control.
